{"source": "patent US20200297684A1", "about": "“TOPICAL COMPOSITIONS AND METHODS FOR TREATING ACNE VULGARIS” (Bausch Health Ireland Limited, priority 2019, published 2020)", "key": {"[1]": {"experiment": "Chemical stability of tretinoin in an admixture with benzoyl peroxide at room condition and 32° C., under room light", "assay_type": "physicochemical", "conditions": "for Assay (% label claim), 32° C., Room Light / Assay (% label claim), Room Condition: tretinoin in admixture with benzoyl peroxide", "description": "The chemical stability of tretinoin in an admixture with benzoyl peroxide of the present invention at room temperature and 32 degrees C., under room light condition is shown in Table 1.\nMore than 97 and 96 percent of treinoin in the original admixture of the present invention remains after 24 hours at room condition and 32° C., under room light, respectively. Such stability ensures that the therapeutic efficacy of tretinoin is not diminished between once-a-day applications."}, "[2]": {"conditions": "equal parts of 0.05% tretinoin gel and gel containing 5% BPO and clindamycin phosphate; 32° C. for 7 hours; cited from earlier work"}, "[3]": {"conditions": "time 0 hr, replicates top/middle/bottom"}}, "note": "Where “and” joins values, the source holds several entries; their conditions need not be identical. Equal entries are not always repeated.", "data": [{"smiles": "CC1=C(/C=C/C(C)=C/C=C/C(C)=C/C(=O)O)C(C)(C)CCC1", "note": "[Tretinoin, tretinoin]", "values": [{"measurement": "time for which tretinoin in the admixture is chemically stable", "setting": "[1]; admixture of tretinoin and benzoyl peroxide compositions, even at 32° C. under room light condition", "result": "at least 24 hours"}, {"measurement": "percent of tretinoin in the original admixture remaining", "setting": "[1]; after 24 hours at 32° C., under room light", "result": "> 96", "unit": "%"}, {"measurement": "percent of tretinoin in the original admixture remaining", "setting": "[1]; after 24 hours at room condition", "result": "More than 97%"}, {"measurement": "Assay (% label claim), 32° C., Room Light", "setting": "[1]; [3]", "result": "98.8 % label claim and 97.1 % label claim and 98.3 % label claim"}, {"measurement": "Assay (% label claim), Room Condition", "setting": "[1]; [3]", "result": "98.8 % label claim and 97.1 % label claim and 98.3 % label claim"}, {"measurement": "Assay (% label claim), 32° C., Room Light", "setting": "[1]; time 1 hr", "result": "98.5 % label claim and 97.1 % label claim"}, {"measurement": "Assay (% label claim), Room Condition", "setting": "[1]; time 1 hr", "result": "96.8 % label claim and 97.2 % label claim"}, {"measurement": "Assay (% label claim), Room Condition", "setting": "[1]; time 3 hr", "result": "97.8 % label claim and 97.5 % label claim"}, {"measurement": "Assay (% label claim), 32° C., Room Light", "setting": "[1]; time 4 hr", "result": "98.6 % label claim and 98.2 % label claim"}, {"measurement": "Assay (% label claim), Room Condition", "setting": "[1]; time 5 hr", "result": "97.0 % label claim and 97.3 % label claim"}, {"measurement": "Assay (% label claim), Room Condition", "setting": "[1]; time 8 hr", "result": 99.5, "unit": "% label claim"}, {"measurement": "Assay (% label claim), 32° C., Room Light", "setting": "[1]; time 12 hr", "result": "98.9 % label claim and 97.0 % label claim"}, {"measurement": "Assay (% label claim), Room Condition", "setting": "[1]; time 12 hr", "result": "97.3 % label claim and 97.8 % label claim"}, {"measurement": "Assay (% label claim), 32° C., Room Light", "setting": "[1]; time 24 hr", "result": "96.6 % label claim and 97.8 % label claim"}, {"measurement": "Assay (% label claim), Room Condition", "setting": "[1]; time 24 hr", "result": "98.1 % label claim and 97.4 % label claim"}, {"measurement": "stability of tretinoin in the mixture", "setting": "[2]", "result": "stable"}]}]}
